Measurements taken from PMC11312998, “Molecular Pro-Apoptotic Activities of Flavanone Derivatives in Cyclodextrin Complexes: New Implications for Anticancer Therapy” (International Journal of Molecular Sciences, 2024).
Converted amounts (≈) assume the structure as drawn. Blank lines part the entries; values can stand above or below the compound they belong to.

How the values were obtained:
[1] = test system: MCF-7; experiment: Mitochondrial potential (ΔΨm), JC-1 method; type: cell-based, human; details: IC50 concentration, 24 h
Description: (§1) 5,5,6,6-Tetrachloro-1,1,3,3-tetraethylbenzimidazolylcarbocyanine iodide (JC-1) is a cationic carbocyanine dye commonly used as a fluorescent probe to detect mitochondrial membrane depolarization. In living cells with an intact mitochondrial membrane, the lipophilic JC-1 penetrates the negatively charged mitochondrial matrix as a monomer. It then forms fluorescent aggregates with red-orange fluorescence (λex = 514 nm, λem = 590 nm). During depolarization of the mitochondrial membrane or in apoptotic cells, the concentration of JC-1 decreases, and the aggregates disintegrate into monomers emitting green fluorescence (λex = 514 nm, λem = 529 nm). The fluorescence ratio of aggregates (λem = 590 nm) and monomers (λem = 529 nm)—590 nm/529 nm—reflects the level of damage to the mitochondrial membrane.
(§2) The cells were seeded in black 96-well fluorometric microplates at a density of 10 × 10^3 cells per well. […] After incubation with the compounds, the medium was removed, the cell monolayer in the wells was washed twice with HBSS (140 mM NaCl, 5 mM KCl, 0.8 mM MgCl2, 1.8 mM CaCl2, 1 mM Na2HPO4, 10 mM HEPES and 1% glucose) and 50 μL of JC-1 solution in HBSS was added to each well (final probe concentration 5 μmol/L). Cells were incubated with the probe for 30 min in the dark in an incubator (37 °C). After incubation, the probe was removed and replaced with fresh HBSS buffer. Fluorescence measurements (Perkin-Elmer LS-5B spectrofluorometer, MA, USA) of JC-1 monomers and aggregates were made at the following excitation and emission wavelengths: λex = 514 nm, λem = 529 nm (monomers), λex = 514 nm, λem = 590 nm (aggregates). The results of the tested samples are presented as the percentage fluorescence ratio of JC-1 aggregates and JC-1 monomers relative to the fluorescence ratio of JC-1 aggregates and JC-1 monomers of the control, which was assumed to be 100%.
(§3) A positive control was formed of cells pre-incubated with 5 µmol/L carbonyl cyanide m-chlorophenylhydrazone (CCCP), a chemical inhibitor of oxidative phosphorylation that acts by uncoupling the protons flowing along the electrochemical gradient from phosphorylation.

[2] = test system: Hec-1-A; experiment: Mitochondrial potential (ΔΨm), JC-1 method; type: cell-based, human; details: IC50 concentration, 24 h
Description: as §1, §2, §3

[3] = test system: Ishikawa; experiment: Mitochondrial potential (ΔΨm), JC-1 method; type: cell-based, human; details: IC50 concentration, 24 h
Description: as §1, §2, §3

[4] = test system: intrinsic coagulation pathway; experiment: Activated partial thromboplastin time (APTT); type: biochemical, human; details: 1–100 µmol/L; values did not exceed the reference range
Description: Basic coagulation parameters were determined using Bio-Ksel reagents (Grudziądz, Poland): APTT reagent, calcium chloride, Bio-Ksel PT plus reagent (tromboplastin and solvent) and thrombin (3.0 UNIH/mL) for TT experiments. The methods were calibrated and the coefficient of variation (PT, APTT, TT experiments) was calculated using a calibrator (Bio-Ksel, Grudziadz, Poland), normal plasma (Bio-Ksel, Grudziądz, Poland) and water for injection (Polpharma, Gdańsk, Poland).
The experiments were conducted in multiplicates, and their results are presented as mean ± standard deviation (SD). Control samples consisting of distilled water and methanol were tested. All methods were validated using Bio-Ksel normal plasma, which was dissolved in water for injection (Polpharma, Gdańsk, Poland). The reference values for each test are as follows: PT: 9.7–13.8 s; INR: 0.9–1.2; APTT: 28.2–42.3 s; TT: 11.0–16.5 s for 3.0 UNIH/mL of thrombin.

[5] = Water solubility by UV–Vis spectrophotometry (phase solubility with cyclodextrins); type: physicochemical; details: 25 °C, thermodynamic from solid, 298.15 K, without cyclodextrin, read-out: Solubility in H2O
Description: Spectrophotometric measurements were performed using a SPECORD 50 single-beam UV–Vis spectrophotometer (Analyst Jena, Thuringia, Germany). The calibration lines of the compounds tested were determined for the concentration range of 3.0 × 10^−6 M to 1 × 10^−4 M (Figure 21). The molar extinction coefficients for 3, 3a, and 5 were determined experimentally in an aqueous ethanol solution; the relevant maximum wavelengths are presented in Table 9. The influence of α-cyclodextrins, β-cyclodextrins and HP-β-cyclodextrins on the solubility of the tested ligands in water was evaluated in three measurement series. Briefly, excess ligand was introduced into closed Eppendorff tubes containing α-CD, β-CD or HP-β-CD solutions, at concentrations ranging from 1 to 90 mM for α-CD and HP-β-CD and from 1 to 15 mM for β-CD. The test tubes were stored for 10 days at a temperature of 298.15 K until equilibrium was achieved. After this time, the solutions were centrifuged using a Microcentrifuge MPW-55 at 13,000 rpm for five minutes. For testing, a clear solution was taken from above the sediment and diluted appropriately so that the spectrum was within the operating range of the spectrophotometer.

[6] = test system: MDA-MB-231; experiment: Superoxide anion generation, DHE probe; type: cell-based, human; details: IC50 concentration, 24 h
Description: The level of superoxide anion (O2^•−) was determined by microplate spectrofluorimetry with dihydroethidium (hydroethidine, DHE) (Life Technologies, Carlsbad, CA, USA), which is the most commonly used fluorogenic probe for monitoring the intracellular production of superoxide anion O2^•− [41]. […] Thanks to this shift, DHE can be used as a sensitive probe for cellular ROS. The reaction between superoxide and DHE generates a highly specific red fluorescent product, 2-hydroxyethidium (2-OH-E^+).
The cells were seeded in black 96-well fluorometric microplates at a density of 10 × 10^3 cells per well. […] After incubation, the medium was removed, the cell monolayer in the wells was washed twice with HBSS (140 mM NaCl, 5 mM KCl, 0.8 mM MgCl2, 1.8 mM CaCl2, 1 mM Na2HPO4, 10 mM HEPES and 1% glucose) and 50 μL of DHE solution in HBSS was added to each well (final probe concentration 5 μmol/L). Cells were incubated with the probe for 30 min in the dark in an incubator (37 °C), and then fluorescence was measured. The measurement was performed at the following excitation and fluorescence emission wavelengths: λex = 498 nm/λem = 582 nm. Fluorescence measurements were made on a Perkin-Elmer LS-5B spectrofluorometer (MA, USA). Fluorescence intensity values for control cells were arbitrarily set as 100%. The results are presented as percentages of control cell values, calculated relative to the fluorescence intensity of the controls (100%): sample fluorescence was calculated as Δf in relation to the controls.

solubility at 10 days [5]: 1.29 µM (≈ 0.442 µg/mL)
Compound: COc1cccc(/C=C2/C(=O)c3ccccc3OC2c2ccccc2)c1 (stereo not shown) [Compound 3]
hyperpolarization of ΔΨm [1]: approximately 30% | changes in ΔΨm (in words) [2]: no changes in ΔΨm were observed | decrease in ΔΨm [3]: about 15% | APTT time (in words) [4]: mild, statistically significant prolongation of APTT time | greater superoxide anion level relative to control (DHE probe) [6]: approximately 20%

solubility at 10 days [5]: 1.5 µM (≈ 0.469 µg/mL)
Compound: O=C1/C(=C/c2ccccc2)C(c2ccccc2)Oc2ccccc21 (stereo not shown) [Compound 5]
hyperpolarization of ΔΨm [1]: ~40% | changes in ΔΨm (in words) [2]: no changes in ΔΨm were observed | hyperpolarization of mitochondrial membranes relative to controls [3]: approximately 30% | APTT time (in words) [4]: mild, statistically significant prolongation of APTT time | greater superoxide anion level relative to control (DHE probe) [6]: ~30%

Compound: O=C1/C(=C/c2ccccc2)COc2ccccc21 [Compound 1]
decrease in ΔΨm (depolarization) compared to the control [1]: approximately 17% | hyperpolarization of ΔΨm compared to control [2]: approximately 30% | decrease in ΔΨm [3]: approximately 30% | greater superoxide anion level relative to control (DHE probe) [6]: approximately 20%
